# From EP0316592A2, “3'-Fluoro-2',3'-dideoxyuridine, and its therapeutic application” (Stichting REGA V.Z.W., priority 1987, dated 1989)
# pIC50, pKi: −log10 of the molar value. Like-named read-outs stand apart in the source and are kept apart here.
# Tests used:
# H9 = experiment: Cytostatic effect (cell proliferation, Coulter count); type: cell-based; settings: Homo sapiens, cell number reduced by 50%, 68-72 hours, read-out: ID50 H9
# Experimental: (§1) Raji/0 cells and Raji/TK⁻ (a thymidine (dThd) kinasedeficient mutant cell line derived from wild-type Raji/0 cells, were grown in 75 cm² plastic tissue culture flasks (International Medical, Brussels, Belgium), in Eagle's minimal essential medium, supplemented with 10% (v/v) inactivated foetal calf serum (Gibco, Glasgow, Scotland, U.K.), 2 mM L-glutamine (Flow Laboratories, Irvine, Scotland, U.K.) and 1% THM (5 mM Tes, 7.5 mM Hepes and 5 mM (MOPS) buffer ([…]). The Raji/0 and Raji/TK⁻ cells were characterized according to J. Balzarini et al (Biochem. Pharmacol. 31, 1089-1095 (1982)). Molt/4F, CEM and H9 cells were grown in Eagle's minimal essential medium, supplemented with 10% (v/v) inactivated foetal calf serum and 2 mM L-glutamine. MT4 cells were cultivated in RPMI 1640 medium (Gibco) containing 20 mM Hepes buffer, 10% (v/v) inactivated foetal calf serum (Gibco) and 2 mM L-glutamine (Flow Laboratories).
# (§2) All assays were performed in flat bottom Microtest III Plates (96 wells) (Falcon) as previously described by E. De Clercq et al (Mol. Pharmacol. 19, 321-330 (1981)). Briefly, the cells were suspended in growth medium and added to the microplate wells at a density of 7.5 x 10⁴ cells/well (200 µ1) in the presence of varying concentrations of the test compounds. The cells were then allowed to proliferate for 68-72 hours at 37°C in a humidified, CO₂-controlled atmosphere. At the end of the incubation period, the cells were counted with a Coulter Counter (Coulter Electronics Ltd., Harpenden Herts, U.K.). The 50% inhibitory dose (ID₅₀) was defined as the concentration of compound that reduced the number of cells by 50%.
# CEM = experiment: as above; type: cell-based; settings: Homo sapiens, CCRF-CEM; cell number reduced by 50%, 68-72 hours; read-out: ID50 CEM
# Experimental: as §1, §2
# MT4 = experiment: as above; type: cell-based; settings: Homo sapiens, cell number reduced by 50%, 68-72 hours, read-out: ID50 MT4
# Experimental: as §1, §2
# Molt/4F = experiment: as above; type: cell-based; settings: Homo sapiens, cell number reduced by 50%, 68-72 hours, read-out: ID50 Molt/4F
# Experimental: as §1, §2
# Raji/0 = experiment: as above; type: cell-based; settings: Homo sapiens, cell number reduced by 50%, 68-72 hours, read-out: ID50 Raji/0
# Experimental: as §1, §2
# Raji/TK- = experiment: as above; type: cell-based; settings: Homo sapiens, cell number reduced by 50%, 68-72 hours, read-out: ID50 Raji/TK-
# Experimental: as §1, §2
# C3H cells = experiment: Cytotoxicity for C3H cells (alteration of normal cell morphology); type: cell-based, mouse
# [1] = molecular target: T1, bacterial thymidine phosphorylase (Escherichia coli, UniProt P07650); experiment: Phosphorolytic cleavage by dThd phosphorylase; type: biochemical; settings: for susceptibility to phosphorolysis by dThd phosphorylase (in words): purified bacterial dThd phosphorylase; for Initial velocity of phosphorolysis: 25°C, 0.1 M sodium phosphate buffer, pH 7.0, N.D. = not detectable with 25 units of enzyme
# T1 construct: purchased Sigma Chemical Co., St. Louis, MO
# T1 sequence (P07650 whole entry): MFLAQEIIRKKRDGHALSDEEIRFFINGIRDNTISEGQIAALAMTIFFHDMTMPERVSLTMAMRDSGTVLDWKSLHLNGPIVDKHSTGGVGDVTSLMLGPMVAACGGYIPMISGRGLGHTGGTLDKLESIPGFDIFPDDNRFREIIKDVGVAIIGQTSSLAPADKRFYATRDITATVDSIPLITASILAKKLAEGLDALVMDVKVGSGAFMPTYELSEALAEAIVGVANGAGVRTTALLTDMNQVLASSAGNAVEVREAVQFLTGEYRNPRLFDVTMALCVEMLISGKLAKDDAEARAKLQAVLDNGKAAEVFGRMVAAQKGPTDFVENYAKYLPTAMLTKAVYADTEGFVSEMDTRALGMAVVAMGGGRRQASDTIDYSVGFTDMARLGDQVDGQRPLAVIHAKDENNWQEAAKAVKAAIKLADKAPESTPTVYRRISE
# Experimental: Phosphorolytic cleavage of the test compounds was assessed using purified bacterial dThd phosphorylase (Sigma Chemical Co., St. Louis, MO) with the aid of a Beckman spectrophotometer UV/Vis 5200; the absorbance change during the enzyme reaction was continuously monitored at 25°C at the wavelength where the difference of absorption between the nucleoside and its free base was maximal. The reaction mixtures for all the assays consisted of enzyme and non-satura ting concentrations of nucleoside in 0.1 M sodium phosphate buffer, pH 7.0. The initial velocity of phosphorolysis was expressed as nmol/min/enzyme unit.
# Molt/4F cells = experiment: Tritium release from (5-3H)dUrd or (5-3H)dCyd in intact Molt/4F cells; type: cell-based; settings: Homo sapiens
# Experimental: Briefly, 10⁷ Molt/4F cells/ml were preincubated with an appropriate amount of test compound for 15 min at 37°C. After this incubation period, radiolabelled (5-³H)dUrd or (5-³H)dCyd (100 µCi/ml; 0.1 µM) were added, and at various times (0, 15, 30, 45, 60 min), 100 µl of the reaction mixture was withdrawn, and mixed with 500 µl of a cold suspension of carbon black (100 mg/ml) in 5% TCA. After centrifugation at 1000 g for 10 min, the supernatants were analysed for radioactivity.
# [2] = test system: human B- and T-cell lines; experiment: Cytostatic effect, pooled over several cell lines; type: cell-based; settings: for pIC50: Homo sapiens
# Experimental: as §2, with “Clercq” left out, “10^4” for “10⁴”, “μ1)” for “µ1)”, “CO2-controlled” for “CO₂-controlled”, “U.K.).” for “U.K.). The 50% inhibitory dose (ID₅₀) was defined as the concentration of compound that reduced the number of cells by 50%.”
# Molt/4F dCyd kinase = molecular target: T2, Molt/4F dCyd kinase (Homo sapiens, UniProt P27707); experiment: Inhibition of dCyd kinase (Lineweaver-Burk); type: biochemical; settings: for Type of inhibition: with respect to dCyd
# T2 construct: endogenous in cells; host or cells: Molt/4F cells (sonicated extract, 30-70% ammonium sulfate fraction, dialyzed)
# T2 sequence (P27707 whole entry): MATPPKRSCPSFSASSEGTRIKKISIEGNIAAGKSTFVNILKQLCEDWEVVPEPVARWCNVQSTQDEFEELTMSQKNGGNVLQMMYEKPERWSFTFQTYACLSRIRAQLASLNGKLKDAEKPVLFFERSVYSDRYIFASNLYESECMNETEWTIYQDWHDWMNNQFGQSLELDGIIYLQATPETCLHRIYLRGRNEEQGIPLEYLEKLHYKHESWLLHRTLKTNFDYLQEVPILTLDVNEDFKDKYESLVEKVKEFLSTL
# Experimental: ddUrd and the 3′-fluoro- and 3′-azido-substituted pyrimidine 2′,3′-dideoxynucleoside analogues were evaluated for their inhibitory effect against dThd and dCyd kinase.
# dThd kinase and dCyd kinase were prepared from exponen tially growing Molt/4F cells, which were first washed (2x) with phosphate-buffered saline at 4° and then homogenized by sonication. The suspensions were clarified by centrifugation at 25,000-27,000 x g for 30 min. The 30-70% (NH₄)₂SO₄ precipitate of the supernatant was resuspended in buffer containing 10 uM potassium phosphate, pH 7.5, 10 mM β-mercaptoethanol and 0.1 M KCl, dialyzed against the same buffer, and used for the dThd kinase and the dCyd kinase assays. In these experiments, (2-¹⁴C)dThd and (U-¹⁴C)dCyd served as the radiolabelled substrates. The apparent Km and Ki values were derived from Lineweaver-Burk plots, using a linear regression analysis program. The assay procedures have been described in detail (J. Balzarini et al, (1983) and J. Balzarini et al, Biochem. Pharmacol. 31, 3673-3682 (1982)).
# [3] = alteration of normal cell morphology, C3H cells
# [4] = read-out: ID50 tritium release from (5-3H)dUrd
# [5] = read-out: ID50 tritium release from (5-3H)dCyd
# [6] = CEM and Molt/4F cells, range over both compounds and both cell lines, read-out: ID50 (the source's name)
# [7] = Raji cells, range over both compounds, read-out: ID50 (the source's name)
Structure (SMILES),pIC50 (H9),pIC50 (CEM),pIC50 (MT4),pIC50 (Molt/4F),pIC50 (Raji/0),pIC50 (Raji/TK-),MSV-induced cyto-pathogenicity CD50 (C3H cells; [3]) [µM],susceptibility to phosphorolysis by dThd phosphorylase (in words) [1],pIC50 (Molt/4F cells; [4]),MSV-induced cyto-pathogenicity CD50 (C3H cells) [µM],Initial velocity of phosphorolysis [1] [nmol/min/unit],pIC50 (Molt/4F cells; [5]),fold higher susceptibility of CEM cells to the cytostatic action than the other cell lines ([2]; CEM versus other cell lines) [fold],"IC50 ([2]; the other cell lines (all but CEM), read-out: ID50 (the source's name)) [µM]",Type of inhibition (Molt/4F dCyd kinase),"pIC50 [2, 6]","pIC50 [2, 7]",Ki/Km (Molt/4F dCyd kinase; Km 5.2 to 6.4 µM),pKi (Molt/4F dCyd kinase; substrate (U-14C)dCyd)
"CCc1cn([C@H]2C[C@H](F)[C@@H](CO)O2)c(=O)[nH]c1=O [FddEtUrd, 3′-fluoro-2′,3′-dideoxy-5-ethyluridine]",< 3.00,< 3.00,< 3.00,< 3.00,< 3.00,< 3.00,>400,no phosphorolytic cleavage whatsoever,< 3.60,,,,,,,,,,
"O=c1ccn([C@H]2CC[C@@H](CO)O2)c(=O)[nH]1 [ddUrd, 2′-3′-dideoxyuridine]",< 3.00,< 3.00,≤ 3.00,< 3.00,< 3.00,< 3.00,,,< 3.60,>400,0.270,< 3.60,,,,,,,
"CCc1cn([C@H]2C[C@H](N=[N+]=[N-])[C@@H](CO)O2)c(=O)[nH]c1=O [AzddEtUrd, 3′-azido-2′,3′-dideoxy-5-ethyluridine]",< 3.00,< 3.00,3.80,< 3.00,< 3.00,< 3.00,>200,no phosphorolytic cleavage whatsoever,4.29,,,< 3.60,,,,,,,
"O=c1ccn([C@H]2C[C@H](F)[C@@H](CO)O2)c(=O)[nH]1 [FddUrd, 3′-fluoro-2′,3′-dideoxyuridine]",< 3.00,4.85,< 3.00,≤ 3.00,< 3.00,< 3.00,>400,,3.90,,0.018,< 3.60,70,> 1000,,,,,
"Nc1ccn([C@H]2CC[C@@H](CO)O2)c(=O)n1 [ddCyd, 2′,3′-Dideoxycytidine]",3.61,5.22,≤ 3.00,5.15,4.64,4.55,>400,totally resistant,,,,,,,competitive,4.62 to 5.22,4.02 to 4.64,,
"CCc1cn([C@H]2CC[C@@H](CO)O2)c(=O)[nH]c1=O [ddEtUrd, 2′,3′-Dideoxy-5-ethyluridine]",< 3.00,< 3.00,3.49,< 3.00,< 3.00,< 3.00,>400,no phosphorolytic cleavage whatsoever,< 3.60,,,,,,,,,,
"Nc1ccn([C@H]2C[C@H](F)[C@@H](CO)O2)c(=O)n1 [FddCyd, 3′-fluoro-2′,3′-dideoxycytidine]",< 3.00,5.15,< 3.00,4.62,4.02,3.93,>400,totally resistant,,,,,,,competitive,4.62 to 5.22,4.02 to 4.64,63,3.44
"[N-]=[N+]=N[C@H]1C[C@H](n2ccc(=O)[nH]c2=O)O[C@@H]1CO [AzddUrd, 3′-azido-2′,3′-dideoxyuridine]",< 3.00,3.37,3.44,< 3.00,≤ 3.00,< 3.00,>400,,4.70,,,< 3.60,,,,,,,
